# US20200045972A1, “NOVEL 5-SUBSTITUTED IMIDAZOLYLMETHYL DERIVATIVES” (Bayer CropScience Aktiengesellschaft, priority 2016, published 2020)
# Assay: Measurement of LogP values by HPLC on reversed phase columns (EEC directive 79/831 Annex V.A8)
# Assay type: physicochemical
# Conditions: method [a]: LC-UV, acidic range, 0.1% formic acid in water and acetonitrile as eluent (linear gradient from 10% to 95% acetonitrile); for chromatographic logP: reversed phase HPLC column
# Experimental: Measurement of LogP values was performed according to EEC directive 79/831 Annex V.A8 by HPLC (High Performance Liquid Chromatography) on reversed phase columns with the following methods: • ^[a] LogP value is determined by measurement of LC-UV, in an acidic range, with 0.1% formic acid in water and acetonitrile as eluent (linear gradient from 10% acetonitrile to 95% acetonitrile). • ^[b] LogP value is determined by measurement of LC-UV, in a neutral range, with 0.001 molar ammonium acetate solution in water and acetonitrile as eluent (linear gradient from 10% acetonitrile to 95% acetonitrile). • ^[c] LogP value is determined by measurement of LC-UV, in an acidic range, with 0.1% phosphoric acid and acetonitrile as eluent (linear gradient from 10% acetonitrile to 95% acetonitrile). If more than one LogP value is available within the same method, all the values are given and separated by “+”. Calibration was done with straight-chain alkan2-ones (with 3 to 16 carbon atoms) with known LogP values (measurement of LogP values using retention times with linear interpolation between successive alkanones). Lambda-max-values were determined using UV-spectra from 200 nm to 400 nm and the peak values of the chromatographic signals.
chromatographic logP,LogP,Structure (SMILES)
2.71,,"N#Cc1cncn1CC(O)(CC1CC(c2ccccc2)=NO1)C1(Cl)CC1 (racemic) [Example I-05, 1-[2-(1-chlorocyclopropyl)-2-hydroxy-3-(3-phenyl-4,5-dihydro-1,2-oxazol-5-yl)propyl]-1H-imidazole-5-carbonitrile]"
,2.59 ^[a],"N#Cc1cncn1CC(O)(CC1CC(c2ccccc2)=NO1)C1(Cl)CC1 (racemic) [Example I-06, 1-[2-(1-chlorocyclopropyl)-2-hydroxy-3-(3-phenyl-4,5-dihydro-1,2-oxazol-5-yl)propyl]-1H-imidazole-5-carbonitrile]"
2.54,,"N#Cc1cncn1CC(O)(Cc1cc(-c2ccccc2)no1)C1(Cl)CC1 (stereo not drawn) [Example I-03, 1-[2-(1-chlorocyclopropyl)-2-hydroxy-3-(3-phenyl-1,2-oxazol-5-yl)propyl]-1H-imidazole-5-carbonitrile]"
